The target of one assay is EED (1-441)-His protein (Homo sapiens (Human), UniProt O75530). Nature of the assay: EED-H3K27Me3 peptide competition binding assay by AlphaScreen. The settings on record: read-out: (a) IC50 EED Alphascreen binding Qualified. The source says: EED-H3K27Me3 peptide competition binding assay by AlphaScreen (α-screen)
(In Alpha technology, singlet oxygen from a donor bead excites a nearby acceptor bead.)

In assay [1] the target is wild type PRC2 (wtPRC2) complex (Homo sapiens (Human), UniProt O75530). Nature of the assay: EED LC-MS assay. It is filed as biochemical. The settings on record: read-out: (b) IC50 EED LC-MS Qualified. As to the method: A 6 μL solution of 3 μM of the peptide substrate H3K27Me0 (histone H3[21-44]-biotin) in reaction buffer was added to initiate each reaction. […] ELISA (H3K27 Methylation) Assay
wild type PRC2 (wtPRC2) complex, sequence (O75530 whole entry): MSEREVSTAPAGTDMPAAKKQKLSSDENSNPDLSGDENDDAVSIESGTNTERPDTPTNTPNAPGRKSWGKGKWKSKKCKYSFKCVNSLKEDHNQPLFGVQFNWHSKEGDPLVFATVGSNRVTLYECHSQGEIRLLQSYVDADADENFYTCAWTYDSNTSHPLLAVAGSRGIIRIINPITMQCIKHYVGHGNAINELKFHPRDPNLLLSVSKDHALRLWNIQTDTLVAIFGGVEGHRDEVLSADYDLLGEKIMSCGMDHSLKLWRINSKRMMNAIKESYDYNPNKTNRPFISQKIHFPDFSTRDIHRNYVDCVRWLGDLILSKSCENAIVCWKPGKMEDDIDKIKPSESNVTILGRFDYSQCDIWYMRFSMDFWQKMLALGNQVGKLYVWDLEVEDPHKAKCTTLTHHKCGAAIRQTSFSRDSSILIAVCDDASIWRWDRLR
wild type PRC2 (wtPRC2) complex, sequence (Q15910 whole entry partner): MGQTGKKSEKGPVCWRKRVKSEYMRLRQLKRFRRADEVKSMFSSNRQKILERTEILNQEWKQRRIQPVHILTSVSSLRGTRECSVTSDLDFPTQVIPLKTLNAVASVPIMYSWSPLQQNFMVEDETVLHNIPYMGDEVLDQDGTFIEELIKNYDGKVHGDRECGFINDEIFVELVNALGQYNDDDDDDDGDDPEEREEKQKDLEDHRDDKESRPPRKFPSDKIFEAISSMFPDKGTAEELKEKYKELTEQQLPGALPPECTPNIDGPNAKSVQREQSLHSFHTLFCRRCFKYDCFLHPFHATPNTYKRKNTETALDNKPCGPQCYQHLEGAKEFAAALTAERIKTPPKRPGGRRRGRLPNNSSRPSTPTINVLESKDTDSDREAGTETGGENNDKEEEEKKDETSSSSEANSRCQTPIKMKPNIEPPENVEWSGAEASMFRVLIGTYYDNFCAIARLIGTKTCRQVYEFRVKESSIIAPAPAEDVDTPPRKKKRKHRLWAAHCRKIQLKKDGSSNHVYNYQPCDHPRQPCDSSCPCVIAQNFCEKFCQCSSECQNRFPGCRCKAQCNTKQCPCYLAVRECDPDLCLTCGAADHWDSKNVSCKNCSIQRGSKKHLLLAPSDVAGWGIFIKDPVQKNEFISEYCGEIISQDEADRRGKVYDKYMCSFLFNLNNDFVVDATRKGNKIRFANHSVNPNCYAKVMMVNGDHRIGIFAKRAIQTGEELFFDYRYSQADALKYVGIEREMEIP
wild type PRC2 (wtPRC2) complex, sequence (Q15022 whole entry partner): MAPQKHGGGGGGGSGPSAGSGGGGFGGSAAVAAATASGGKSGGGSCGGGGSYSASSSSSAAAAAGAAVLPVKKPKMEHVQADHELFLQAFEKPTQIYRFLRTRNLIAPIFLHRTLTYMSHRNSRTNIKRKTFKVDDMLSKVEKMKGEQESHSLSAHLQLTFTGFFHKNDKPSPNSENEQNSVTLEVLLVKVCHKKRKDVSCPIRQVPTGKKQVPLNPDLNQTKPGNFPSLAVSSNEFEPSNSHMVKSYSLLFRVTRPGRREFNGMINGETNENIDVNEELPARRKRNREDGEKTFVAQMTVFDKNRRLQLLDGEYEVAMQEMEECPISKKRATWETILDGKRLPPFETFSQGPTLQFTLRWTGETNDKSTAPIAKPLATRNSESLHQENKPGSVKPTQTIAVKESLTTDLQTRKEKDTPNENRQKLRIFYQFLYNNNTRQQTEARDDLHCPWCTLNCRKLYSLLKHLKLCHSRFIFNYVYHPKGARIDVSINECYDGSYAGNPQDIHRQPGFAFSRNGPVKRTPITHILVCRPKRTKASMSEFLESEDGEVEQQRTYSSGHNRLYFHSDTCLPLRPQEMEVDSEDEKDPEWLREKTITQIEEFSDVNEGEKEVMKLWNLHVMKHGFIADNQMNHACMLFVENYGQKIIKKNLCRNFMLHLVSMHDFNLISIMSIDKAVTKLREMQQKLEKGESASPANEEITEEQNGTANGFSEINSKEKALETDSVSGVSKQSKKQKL

EED (1-441)-His protein, sequence (O75530 whole entry): as the sequence (O75530 whole entry) above

With `COCCc1ccc(-c2cnc(NCc3cccc4c3CCO4)n3cnnc23)cn1` [Example 86, N-((2,3-dihydrobenzofuran-4-yl)methyl)-8-(6-(2-methoxyethyl)pyridin-3-yl)-[1,2,4]triazolo[4,3-c]pyrimidin-5-amine], the IC50 (commonly the midpoint of a concentration-inhibition curve) on EED (1-441)-His protein stood at 11.1 nM; in assay [1], 26.7 nM.
As to `CC1CN(c2ccc(-c3cnc(NCc4cccc5c4CCO5)n4cnnc34)cn2)CC(C)O1` (centres unmarked) [Example 74, N-((2,3-dihydrobenzofuran-4-yl)methyl)-8-(6-(2,6-dimethylmorpholino)pyridin-3-yl)-[1,2,4]triazolo[4,3-c]pyrimidin-5-amine], the half-maximal inhibitory concentration (IC50) on EED (1-441)-His protein came to 89.6 nM; in assay [1] it was 139 nM.
In the case of `c1cncc(-c2cnc(NCc3cccc4occc34)n3cnnc23)c1` [Example 213, N-(benzofuran-4-ylmethyl)-8-(pyridin-3-yl)-[1,2,4]triazolo[4,3-c]pyrimidin-5-amine], the IC50 on EED (1-441)-His protein was found to be 36.6 nM; in assay [1], 25.6 nM.
In the case of `CN(C)Cc1ccc(-c2cnc(NCc3c(F)ccc4c3CCO4)n3cnnc23)cc1` [Example 23, 8-(4-((dimethylamino)methyl)phenyl)-N-((5-fluoro-2,3-dihydrobenzofuran-4-yl)methyl)-[1,2,4]triazolo[4,3-c]pyrimidin-5-amine], the IC50 at EED (1-441)-His protein amounted to 31.1 nM; in assay [1] it was 25.7 nM.
As for `COc1ccc(-c2cnc(NCc3cccc4c3CCO4)n3cnnc23)cn1` [Example 21, N-((2,3-dihydrobenzofuran-4-yl)methyl)-8-(6-methoxypyridin-3-yl)-[1,2,4]triazolo[4,3-c]pyrimidin-5-amine], the IC50 amounted to 25.2 nM on EED (1-441)-His protein and 26 nM in assay [1].
For `CN1CCN(c2cc(-c3cnc(NCc4cccc5c4CCO5)n4cnnc34)ccn2)CC1` [Example 18, N-((2,3-dihydrobenzofuran-4-yl)methyl)-8-(2-(4-methylpiperazin-1-yl)pyridin-4-yl)-[1,2,4]triazolo[4,3-c]pyrimidin-5-amine] the same measures were 18.5 nM and 27.9 nM.
Turning to `Fc1ccc2c(c1CNc1ncc(-n3cccn3)c3nncn13)CCO2` [Example 237, N-((5-fluoro-2,3-dihydrobenzofuran-4-yl)methyl)-8-(1H-pyrazol-1-yl)-[1,2,4]triazolo[4,3-c]pyrimidin-5-amine], the IC50 on EED (1-441)-His protein was 3.1 nM; in assay [1], 10 nM.
In the same order, the values of `CS(=O)(=O)Nc1ccc(-c2cnc(NCc3cccc4c3CCO4)n3cnnc23)cc1F` [Example 33, N-(4-(5-(((2,3-dihydrobenzofuran-4-yl)methyl)amino)-[1,2,4]triazolo[4,3-c]pyrimidin-8-yl)-2-fluorophenyl)methanesulfonamide] are 28.5 nM and 17.5 nM.
With `Cc1nc(C2CC2)ncc1-c1cnc(NCc2c(F)ccc3c2CCO3)n2cnnc12` [Example 8, 8-(2-cyclopropyl-4-methylpyrimidin-5-yl)-N-((5-fluoro-2,3-dihydrobenzofuran-4-yl)methyl)-[1,2,4]triazolo[4,3-c]pyrimidin-5-amine], the IC50 is 4.9 nM on EED (1-441)-His protein and 7.2 nM in assay [1].
For `Cn1cc(-c2cnc(NCc3c(F)ccc4c3CCO4)n3cnnc23)c(C(F)(F)F)n1` [Example 170, N-((5-fluoro-2,3-dihydrobenzofuran-4-yl)methyl)-8-(1-methyl-3-(trifluoromethyl)-1H-pyrazol-4-yl)-[1,2,4]triazolo[4,3-c]pyrimidin-5-amine], the IC50 turned out to be 10.7 nM at EED (1-441)-His protein and 12.1 nM in assay [1].
Regarding `c1cc(CNc2ncc(-c3cncc(N4CCNCC4)c3)c3nncn23)c2c(c1)OCC2` [Example 77, N-((2,3-dihydrobenzofuran-4-yl)methyl)-8-(5-(piperazin-1-yl)pyridin-3-yl)-[1,2,4]triazolo[4,3-c]pyrimidin-5-amine], the IC50 stood at 21.6 nM at EED (1-441)-His protein and 52.3 nM in assay [1].
For `Fc1ccc2c(c1CNc1ncc(-c3ccncc3Cl)c3nncn13)CCO2` [Example 162, 8-(3-chloropyridin-4-yl)-N-((5-fluoro-2,3-dihydrobenzofuran-4-yl)methyl)-[1,2,4]triazolo[4,3-c]pyrimidin-5-amine] the same measures were 5.7 nM and 21.1 nM.
For `CC(C)S(=O)(=O)c1ccc(-c2cnc(NCc3cccc4occc34)n3cnnc23)cc1` [Example 215, N-(benzofuran-4-ylmethyl)-8-(4-(isopropylsulfonyl)phenyl)-[1,2,4]triazolo[4,3-c]pyrimidin-5-amine] the same measures were 20.3 nM and 21.2 nM.
`Cc1c(-c2cnc(NCc3c(F)ccc4c3CCO4)n3cnnc23)cnn1C` [Example 172, 8-(1,5-dimethyl-1H-pyrazol-4-yl)-N-((5-fluoro-2,3-dihydrobenzofuran-4-yl)methyl)-[1,2,4]triazolo[4,3-c]pyrimidin-5-amine]: the IC50 at EED (1-441)-His protein was 6.6 nM; in assay [1] it was 7.1 nM.
For `CC1(C)COC(c2ccc(-c3cnc(NCc4cccc5c4CCO5)n4cnnc34)cn2)=N1` [Example 101, N-((2,3-dihydrobenzofuran-4-yl)methyl)-8-(6-(4,4-dimethyl-4,5-dihydrooxazol-2-yl)pyridin-3-yl)-[1,2,4]triazolo[4,3-c]pyrimidin-5-amine] the same measures were 11.7 nM and 13.6 nM.
As for `CN(C)C(=O)c1ccc(-c2cnc(NCc3cccc4c3CCO4)n3cnnc23)cn1` [Example 95, 5-(5-(((2,3-dihydrobenzofuran-4-yl)methyl)amino)-[1,2,4]triazolo[4,3-c]pyrimidin-8-yl)-N,N-dimethylpicolinamide], the 50% inhibitory concentration (IC50) on EED (1-441)-His protein came out at 5.2 nM; in assay [1], 12.8 nM.
As to `Cc1c(-c2cnc(NCc3c(F)ccc4c3C(O)CO4)n3cnnc23)ccc[n+]1[O-]` (centres unmarked) [Example 244, 3-(5-(((5-fluoro-3-hydroxy-2,3-dihydrobenzofuran-4-yl)methyl)amino)-[1,2,4]triazolo[4,3-c]pyrimidin-8-yl)-2-methylpyridine 1-oxide], the IC50 on EED (1-441)-His protein was 11.7 nM; in assay [1] it was 38.9 nM.
For the molecule `Clc1ccccc1-c1cnc(NCc2cccc3c2CCO3)n2cnnc12` [Example 32, 8-(2-chlorophenyl)-N-((2,3-dihydrobenzofuran-4-yl)methyl)-[1,2,4]triazolo[4,3-c]pyrimidin-5-amine], the IC50 at EED (1-441)-His protein is 43.4 nM; in assay [1] it was 22.9 nM.
Take `Cc1nn(CCO)c(C)c1-c1cnc(NCc2cccc3c2CCO3)n2cnnc12` [Example 67, 2-(4-(5-(((2,3-dihydrobenzofuran-4-yl)methyl)amino)-[1,2,4]triazolo[4,3-c]pyrimidin-8-yl)-3,5-dimethyl-1H-pyrazol-1-yl)ethanol]: the IC50 at EED (1-441)-His protein was determined as 30.9 nM; in assay [1], 90.2 nM.
With `CS(=O)(=O)CCCOc1cncc(-c2cnc(NCc3cccc4c3CCO4)n3cnnc23)c1` [Example 98, N-((2,3-dihydrobenzofuran-4-yl)methyl)-8-(5-(3-(methylsulfonyl)propoxy)pyridin-3-yl)-[1,2,4]triazolo[4,3-c]pyrimidin-5-amine], the IC50 at EED (1-441)-His protein worked out at 21.7 nM; in assay [1] it was 35.6 nM.
In the same order, the values of `OCCn1cc(-c2cnc(NCc3cccc4c3CCO4)n3cnnc23)cn1` [Example 34, 2-(4-(5-(((2,3-dihydrobenzofuran-4-yl)methyl)amino)-[1,2,4]triazolo[4,3-c]pyrimidin-8-yl)-1H-pyrazol-1-yl)ethanol] are 37.5 nM and 49.4 nM.
Consider `Cc1nn(C2CC2)c(C)c1-c1cnc(NCc2c(F)ccc3c2CCO3)n2cnnc12` [Example 179, 8-(1-cyclopropyl-3,5-dimethyl-1H-pyrazol-4-yl)-N-((5-fluoro-2,3-dihydrobenzofuran-4-yl)methyl)-[1,2,4]triazolo[4,3-c]pyrimidin-5-amine], for which the figures for the 50% inhibitory concentration (IC50) (on EED (1-441)-His protein; in assay [1]) were 12.4 nM and 16.1 nM, respectively.
For the molecule `Cc1cnc(C(F)F)cc1-c1cnc(NCc2c(F)ccc3c2CCO3)n2cnnc12` [Example 198, 8-(2-(difluoromethyl)-5-methylpyridin-4-yl)-N-((5-fluoro-2,3-dihydrobenzofuran-4-yl)methyl)-[1,2,4]triazolo[4,3-c]pyrimidin-5-amine], the IC50 stood at 4.4 nM on EED (1-441)-His protein and 17.3 nM in assay [1].
For `Fc1ccc2c(c1CNc1ncc(-c3ccc(N4CCSCC4)nc3)c3nncn13)CCO2` [Example 91, N-((5-fluoro-2,3-dihydrobenzofuran-4-yl)methyl)-8-(6-thiomorpholinopyridin-3-yl)-[1,2,4]triazolo[4,3-c]pyrimidin-5-amine], the IC50 stood at 9.9 nM at EED (1-441)-His protein and 15.3 nM in assay [1].
For `CN1CCN(c2cc(-c3cnc(NCc4cccc5occc45)n4cnnc34)ccn2)CC1` [Example 212, N-(benzofuran-4-ylmethyl)-8-(2-(4-methylpiperazin-1-yl)pyridin-4-yl)-[1,2,4]triazolo[4,3-c]pyrimidin-5-amine] the same measures were 31.2 nM and 33.8 nM.
For `FCc1ncccc1-c1cnc(NCc2c(F)ccc3c2CCO3)n2cnnc12` [Example 193, N-((5-fluoro-2,3-dihydrobenzofuran-4-yl)methyl)-8-(2-(fluoromethyl)pyridin-3-yl)-[1,2,4]triazolo[4,3-c]pyrimidin-5-amine], the IC50 on EED (1-441)-His protein worked out at 4 nM; in assay [1], 13 nM.
In the case of `Cn1cc(-c2cnc(NCc3c(F)ccc4c3CCO4)n3cnnc23)c(C(F)F)n1` [Example 200, 8-(3-(difluoromethyl)-1-methyl-1H-pyrazol-4-yl)-N-((5-fluoro-2,3-dihydrobenzofuran-4-yl)methyl)-[1,2,4]triazolo[4,3-c]pyrimidin-5-amine], the figures for the IC50 (on EED (1-441)-His protein; in assay [1]) were 7.5 nM and 9.5 nM, respectively.
In the case of `COc1ccc(-c2cnc(NCc3c(F)ccc4c3CCO4)n3cnnc23)cn1` [Example 142, N-((5-fluoro-2,3-dihydrobenzofuran-4-yl)methyl)-8-(6-methoxypyridin-3-yl)-[1,2,4]triazolo[4,3-c]pyrimidin-5-amine], the IC50 at EED (1-441)-His protein was 2.4 nM; in assay [1] it was 5.1 nM.

For the origin of these results see patent US9580437B2, “Triazolopyrimidine compounds and uses thereof” (Novartis AG, priority 2014, dated 2017).
